The results in this text go back to patent publication US8592403B2, “Diazepine and diazocane compounds as MC4 agonists” (Pfizer Limited, priority 2008, dated 2013).

Data set [1] has as its target T1, human MC3 receptors (Homo sapiens, UniProt P41968).
T1 construct: stably transfected with full length cDNA encoding human MC1 or MC3 receptors; expressed in transfected cells
Briefly: In vitro agonist potency (EC50) at melanocortin receptor type 3, cAMP in recombinant cell line. Type of data set: cell-based. How it is done:
Measurement of In Vitro Agonist Potency (EC50) of Compounds Against Melanocortin Receptors Type 1 and 3 (MC1 and MC3).
Activation of melanocortin (MC) receptors by agonists results in activation of intracellular adenylate cyclase enzymes that synthesise the second messenger signalling molecule, adenosine 3′,5′-cyclic monophosphate (cAMP). Changes in cAMP levels following treatment of recombinant MC1 and MC3 cell lines with test compound were measured and an MC1 and MC3 potency estimate (EC50) calculated as follows: […]
Human embryonic kidney (HEK) or Chinese hamster ovary cell lines stably transfected with full length cDNA encoding human MC1 or MC3 receptors, respectively, were established using standard molecular biology methods. Test compounds were dissolved in dimethyl sulfoxide (DMSO) at 4 mM. 11 point half log unit increment dilution series of test compound, typically starting at 50 uM were prepared in a buffer comprised of phosphate buffered saline (PBS), 2.5% DMSO and 0.05% pluronic F-127 surfactant. Freshly cultured cells at 80-90% confluence were harvested and re-suspended in Dulbecco's Modified Eagle's Medium (DMEM). Cells (10,000 for MC3, 20,000 for MC1) were added to the test compound dilution series in a 384 well assay plate and incubated for 1 hour at 37° C. The relative cAMP concentration in each well was then measured using a β-galactosidase enzyme fragment complementation method purchased in kit form as the Discoverx cAMP II kit from GE Healthcare/Amersham Biosciences UK. In the case of MC1,3-Isobutyl-1-methylxanthine (IBMX) at a concentration of 750 μM was included in DMEM as the cells were re-suspended for assay. […] Sigmoidal curves were fitted to plots of log10 inhibitor concentration vs percent effect using a custom made software application called SIGHTS and EC50 estimates determined by the software as the concentration of test compound giving an effect half way between the bottom and top asymptotes of the sigmoidal dose response curve. Each experiment included an EC50 determination for alpha melanocyte stimulating hormone, which was used as a standard to track assay consistency and allow fair comparison between EC50 estimates obtained in different experiments.

Data set [2] addresses MC4 receptor (Homo sapiens, UniProt P32245). Briefly: MC4 EC50 functional potency (protocol E of US2005/0176772 / WO 2005/077935). It counts as cell-based. The procedure: The compounds of formula (I) of the present invention have utility as MCR4 agonists in the treatment of various disease states.
MC5 and MC4 EC50 activity was determined as described by assay protocols D and E, respectively, in US2005/0176772 (pages 28-30).

The target of data set [3] is T2, CYP3A4 (Homo sapiens, UniProt P08684).
T2 construct: utilizes human liver microsomes together with isoform-specific clinical drug probes; from tissue; host or cells: human liver microsomes
Briefly: High density DDI 3 μM cocktail screen in human liver microsomes, midazolam probe. To be noted: human, liver microsomes, probe midazolam, read-out: % inhibition 3A4 @ 3 μM. Type of data set: in vitro ADME. The essentials: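 Pooled human liver microsomes incubated with isoform-specific clinical probe substrates as a cocktail (midazolam for CYP3A4), with or without test compound at 3 μM. Metabolite formation followed over time by LC-MS/MS. Inhibition expressed as a single-point percentage.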

A short description of data set [4]: In vitro metabolism rate determination, human liver microsome (HLM) assay. The following applies: human, liver microsomes, read-out: HLM: Clint, app. It counts as in vitro ADME. The essentials: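 Human liver microsomes at 0.5 nmol cytochrome P450/ml with 1 μM substrate, pre-warmed 5 min at 37° C, reaction started with NADP; samples taken 0–60 min and terminated. Substrate loss measured; first-order rate constant from log-linear regression converted to half-life or Clint (μl/min/mg protein).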

Chain of MC4 receptor (P32245 whole entry): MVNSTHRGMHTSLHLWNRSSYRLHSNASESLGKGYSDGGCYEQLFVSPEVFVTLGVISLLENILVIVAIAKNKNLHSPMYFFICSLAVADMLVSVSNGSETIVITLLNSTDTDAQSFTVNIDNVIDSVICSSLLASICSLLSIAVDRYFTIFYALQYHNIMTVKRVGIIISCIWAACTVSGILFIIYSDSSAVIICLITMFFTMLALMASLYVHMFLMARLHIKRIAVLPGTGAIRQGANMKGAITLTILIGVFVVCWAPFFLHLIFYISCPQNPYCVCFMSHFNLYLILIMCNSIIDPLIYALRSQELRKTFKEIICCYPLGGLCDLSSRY
T1 sequence (P41968 whole entry): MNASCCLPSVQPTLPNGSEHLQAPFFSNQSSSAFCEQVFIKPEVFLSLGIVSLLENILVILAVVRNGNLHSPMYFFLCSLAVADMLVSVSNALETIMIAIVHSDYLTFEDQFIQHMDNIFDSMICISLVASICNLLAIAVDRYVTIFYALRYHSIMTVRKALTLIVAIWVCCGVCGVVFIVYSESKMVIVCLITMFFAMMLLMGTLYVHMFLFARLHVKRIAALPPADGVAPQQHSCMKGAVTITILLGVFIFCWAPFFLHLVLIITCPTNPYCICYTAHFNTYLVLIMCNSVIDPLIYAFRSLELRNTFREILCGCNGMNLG
T2 sequence (P08684 whole entry, canonical isoform): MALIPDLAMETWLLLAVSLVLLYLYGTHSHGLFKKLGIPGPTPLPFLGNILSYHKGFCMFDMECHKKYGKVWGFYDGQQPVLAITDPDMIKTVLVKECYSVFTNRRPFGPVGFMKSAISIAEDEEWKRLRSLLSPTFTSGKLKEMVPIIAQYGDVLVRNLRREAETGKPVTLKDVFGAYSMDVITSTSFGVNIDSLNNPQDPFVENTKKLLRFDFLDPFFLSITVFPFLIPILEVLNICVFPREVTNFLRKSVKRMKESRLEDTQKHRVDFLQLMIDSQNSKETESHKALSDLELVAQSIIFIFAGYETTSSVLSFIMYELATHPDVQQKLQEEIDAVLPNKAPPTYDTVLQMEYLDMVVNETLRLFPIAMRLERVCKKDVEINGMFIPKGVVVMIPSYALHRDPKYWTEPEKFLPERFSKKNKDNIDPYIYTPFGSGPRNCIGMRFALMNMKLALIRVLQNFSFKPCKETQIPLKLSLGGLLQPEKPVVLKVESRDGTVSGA

A word on the EC50: it is the concentration giving half of the maximal effect. The term inhibition denotes the relative decrease from the control value, in per cent. For the molecule `CNC(=O)N1CCN(C(=O)[C@@H]2CN(c3cccnn3)C[C@H]2c2ccc(F)cc2F)CCCC1c1ccccc1` (mixture of isomers) [Example 73], the concentration for a half-maximal effect (EC50) is 544 nM in data set [1] and 12.2 nM in data set [2]. Besides, the inhibition at 3 µM in data set [3] is 88%. The microsomal CLint at 1 μM in data set [4] worked out at 53 µL/min/mg.

For the molecule `CS(=O)(=O)N1CCN(C(=O)[C@@H]2CN(c3ccc(C#N)nn3)C[C@H]2c2ccc(F)cc2F)CCCC1c1ccc(Cl)cc1` (mixture of isomers) [Example 76], the concentration for a half-maximal effect (EC50) in data set [1] was 604 nM; in data set [2], 50 nM. For the same molecule, in data set [3], the inhibition at 3 µM was 33.5%. Moreover, the microsomal CLint at 1 μM in data set [4] stood at 11 µL/min/mg.

`CS(=O)(=O)N1CCN(C(=O)[C@@H]2CN(c3ccc(=O)[nH]n3)C[C@H]2c2ccc(F)cc2F)CCCC1c1ccc(Cl)cc1` (mixture of isomers) [Example 79]: the values for the EC50 in data set [1] and in data set [2] were 1820 nM and 17.1 nM, respectively. For the same molecule, the inhibition at 3 µM in data set [3] was found to be 51%. Besides, the microsomal CLint at 1 μM in data set [4] came out at 22 µL/min/mg.

`CCCC(=O)N1CCN(C(=O)[C@@H]2CN(c3cccnn3)C[C@H]2c2ccc(F)cc2F)CCCC1c1ccccc1` (mixture of isomers) [Example 101]: the EC50 turned out to be 114 nM in data set [1] and 7.12 nM in data set [2]. In addition, in data set [3], the inhibition at 3 µM was 83%. The microsomal CLint at 1 μM in data set [4] was 143 µL/min/mg.

As for `CC(=O)N1CCN(C(=O)[C@@H]2CN(c3cccnn3)C[C@H]2c2ccc(F)cc2F)CCCC1c1ccccc1` (mixture of isomers) [Example 103], the EC50 in data set [1] is 332 nM; in data set [2] it was 9.79 nM. Besides, the inhibition at 3 µM in data set [3] amounted to 53.8%. The microsomal CLint at 1 μM in data set [4] came out at 102 µL/min/mg.

Take `COc1ccc([C@@H]2CN(c3ccc(=O)n(C)n3)C[C@H]2C(=O)N2CCCC(c3ccc(Cl)cc3)N(S(C)(=O)=O)CC2)c(F)c1` (single isomer, unassigned) [Example 117]: the EC50 in data set [1] was 8360 nM; in data set [2], 34.9 nM. Moreover, the inhibition at 3 µM in data set [3] is 44.5%. In data set [4], the microsomal CLint at 1 μM was 35.1 µL/min/mg.

With `CC(=O)N1CCN(C(=O)[C@@H]2CN(c3ccc4nncn4n3)C[C@H]2c2ccc(Cl)cn2)CCC[C@H]1c1ccc(Cl)cc1` [Example 6, 6-[(3S,4S)-3-{[4-acetyl-5S-(4-chlorophenyl)-1,4-diazocan-1-yl]carbonyl}-4-(5-chloropyridin-2-yl)pyrrolidin-1-yl][1,2,4]triazolo[4,3-b]pyridazine], the concentration giving a half-maximal response (EC50) in data set [1] was found to be 300 nM; in data set [2], 1.12 nM. For the same molecule, the inhibition at 3 µM in data set [3] amounted to 54.2%. The microsomal CLint at 1 μM in data set [4] turned out to be 13.5 µL/min/mg.

As to `CCC(=O)N1CCN(C(=O)[C@@H]2CN(C(C)(C)C)C[C@H]2c2ccc(F)cc2F)CCC[C@H]1c1ccc(Cl)cc1` [Example 10], the results for the 50% effective concentration (EC50) in data set [1] and in data set [2] were 4190 nM and 17.3 nM, respectively. Further, in data set [3], the inhibition at 3 µM stood at 37.1%. In data set [4], the microsomal CLint at 1 μM is 22.1 µL/min/mg.

On to `CC(C)C(=O)N1CCN(C(=O)[C@@H]2CN(C(C)(C)C)C[C@H]2c2ccc(F)cc2F)CCC[C@H]1c1ccc(Cl)cc1` [Example 11], for which the figures for the EC50 in data set [1] and in data set [2] were 3390 nM and 6.73 nM, respectively. In addition, the inhibition at 3 µM in data set [3] came to 53.5%. Besides, the microsomal CLint at 1 μM in data set [4] is 23.6 µL/min/mg.

Consider `CC(C)(C)N1C[C@@H](C(=O)N2CCC[C@@H](c3ccc(Cl)cc3)N(C(=O)C3CCC3)CC2)[C@H](c2ccc(F)cc2F)C1` [Example 14], for which the EC50 in data set [1] worked out at 8590 nM; in data set [2] it was 13.4 nM. Also, the inhibition at 3 µM in data set [3] was 56.1%. Moreover, in data set [4], the microsomal CLint at 1 μM came out at 82.8 µL/min/mg.

As to `CC(C)(C)C(=O)N1CCN(C(=O)[C@@H]2CN(C(C)(C)C)C[C@H]2c2ccc(F)cc2F)CCC[C@H]1c1ccc(Cl)cc1` [Example 15], the figures for the concentration giving a half-maximal response (EC50) in data set [1] and in data set [2] were 3180 nM and 10.6 nM, respectively. Also, in data set [3], the inhibition at 3 µM was 64.4%. In addition, the microsomal CLint at 1 μM in data set [4] amounted to 57.4 µL/min/mg.

As for `CC(C)C(=O)N1CCN(C(=O)[C@@H]2CN(C(C)(C)C)C[C@H]2c2ccc(Cl)cn2)CCC[C@H]1c1ccc(Cl)cc1` [Example 20, 1-{[(3S,4S)-1-tert-butyl-4-(5-chloropyridin-2-yl)pyrrolidin-3-yl]carbonyl}-5S-(4-chlorophenyl)-4-isobutyryl-1,4-diazocane], the concentration for a half-maximal effect (EC50) in data set [1] came out at 1660 nM; in data set [2], 5.46 nM. Further, the inhibition at 3 µM in data set [3] came out at 50.2%. In data set [4], the microsomal CLint at 1 μM is 18.1 µL/min/mg.

As for `COC(=O)N1CCN(C(=O)[C@@H]2CN(c3ccc(=O)n(C)n3)C[C@H]2c2ccc(F)cc2F)CCC[C@@H]1c1ccc(Cl)cc1` [Example 56], the values for the EC50 in data set [1] and in data set [2] were 1220 nM and 2.99 nM, respectively. In addition, in data set [3], the inhibition at 3 µM worked out at 54.2%. Also, the microsomal CLint at 1 μM in data set [4] is 20.5 µL/min/mg.

On to `COC(=O)N1CCN(C(=O)[C@@H]2CN(c3ccc(=O)n(C)n3)C[C@H]2c2ccc(F)cc2F)CCC[C@H]1c1ccc(Cl)cc1` [Example 66, methyl (8S-4-chlorophenyl)-4-{[(3S,4R)-4-(2,4-difluorophenyl)-1-(1-methyl-6-oxo-1,6-dihydropyridazin-3-yl)pyrrolidin-3-yl]carbonyl}-1,4-diazocane-1-carboxylate], for which the EC50 in data set [1] amounted to 1220 nM; in data set [2], 2.99 nM. Also, the inhibition at 3 µM in data set [3] came to 54.2%. The microsomal CLint at 1 μM in data set [4] turned out to be 20.5 µL/min/mg.

On to `COc1ccc([C@@H]2CN(c3ccc(C#N)nn3)C[C@H]2C(=O)N2CCC[C@@H](c3ccc(Cl)cc3)N(C(C)=O)CC2)c(F)c1` [Example 67], for which the EC50 in data set [1] turned out to be 177 nM; in data set [2], 7.73 nM. Moreover, the inhibition at 3 µM in data set [3] came to 29.5%. Also, the microsomal CLint at 1 μM in data set [4] was 21.4 µL/min/mg.

For the molecule `COc1ccc([C@@H]2CN(c3ccc(=O)[nH]n3)C[C@H]2C(=O)N2CCC[C@@H](c3ccc(Cl)cc3)N(C(C)=O)CC2)c(F)c1` [Example 68, 6-[(3S,4R)-3-{[4-acetyl-5S-(4-chlorophenyl)-1,4-diazocan-1-yl]carbonyl}-4-(2-fluoro-4-methoxyphenyl)pyrrolidin-1-yl]pyridazin-3(2H)-one], the EC50 in data set [1] was 728 nM; in data set [2], 4.3 nM. Moreover, the inhibition at 3 µM in data set [3] was determined as 29.5%. Besides, the microsomal CLint at 1 μM in data set [4] worked out at 13.7 µL/min/mg.

Turning to `COc1ccc([C@@H]2CN(C(C)(C)C)C[C@H]2C(=O)N2CCC[C@@H](c3ccc(Cl)cc3)N(C(C)=O)CC2)c(F)c1` [Example 70], the half-maximal effective concentration (EC50) in data set [1] stood at 4040 nM; in data set [2], 20.6 nM. Besides, the inhibition at 3 µM in data set [3] came to 36%. The microsomal CLint at 1 μM in data set [4] amounted to 28.3 µL/min/mg.

`CC(=O)N1CCN(C(=O)[C@@H]2CN(c3ccc(C#N)nn3)C[C@H]2c2ccc(Cl)cn2)CCC[C@H]1c1ccc(Cl)cc1` [Example 72]: the results for the EC50 in data set [1] and in data set [2] were 88.6 nM and 26.1 nM, respectively. In data set [3], the inhibition at 3 µM was found to be 20.4%. Besides, in data set [4], the microsomal CLint at 1 μM was 13 µL/min/mg.

As for `CS(=O)(=O)N1CCN(C(=O)C2CN(c3ccc(=O)[nH]n3)CC2c2ccc(F)cc2F)CCCC1c1ccc(F)cc1` (stereo not shown) [Example 78], the EC50 is 3320 nM in data set [1] and 40.3 nM in data set [2]. The inhibition at 3 µM in data set [3] amounted to 49%. Besides, in data set [4], the microsomal CLint at 1 μM worked out at 54 µL/min/mg.
